Experimental data: PMC10999085, “Synthesis, anticancer evaluation, molecular docking and ADME study of novel pyrido[4ʹ,3ʹ:3,4]pyrazolo[1,5-a]pyrimidines as potential tropomyosin receptor kinase A (TrKA) inhibitors” (BMC Chemistry, 2024)
In brackets after ≈: the same amount, converted by molar mass. Entries after “also recorded” stand apart in the source; their conditions may differ.

How the values were obtained:
MCF7 cell line = assay: MTT assay, MCF7 cell line; assay type: cell-based, human; conditions: 24 hr treatment, in % (unit assumed); for Cytotoxicity at 5 µg/l: MCF7, 5 µg/l; for Cytotoxicity at 10 µg/l: MCF7, 10 µg/l; for Cytotoxicity at 20 µg/l: MCF7, 20 µg/l
In short: (§1)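 Cells in RPMI-1640 with 10% FBS were seeded at 1.0x10^4 cells/well and cultured 48 h, then exposed to compound for 24 hr. Viability was measured by MTT reduction (4 hr), with formazan dissolved in DMSO and read at 570 nm, relative to untreated cells. Values are means of three independent triplicate experiments.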

HepG2 cell line = assay: MTT assay, HepG2 cell line; assay type: cell-based, human; conditions: for Cytotoxicity at 5 µg/l: HepG2, 5 µg/l; for Cytotoxicity at 5 µg/l / Cytotoxicity at 10 µg/l / Cytotoxicity at 20 µg/l: MTT, 24 hr treatment, in % (unit assumed); for Cytotoxicity at 10 µg/l: HepG2, 10 µg/l; for Cytotoxicity at 20 µg/l: HepG2, 20 µg/l; for IC50: Homo sapiens, HepG2, MTT, read-out: IC50 (drug concentration that inhibited 50% of cell proliferation)
In short: as §1

HCT-116 cell line = assay: MTT assay, HCT-116 cell line; assay type: cell-based, human; conditions: for Cytotoxicity at 5 µg/l: HCT116, 5 µg/l; for Cytotoxicity at 5 µg/l / Cytotoxicity at 10 µg/l / Cytotoxicity at 20 µg/l: MTT, 24 hr treatment, in % (unit assumed); for Cytotoxicity at 10 µg/l: HCT116, 10 µg/l; for Cytotoxicity at 20 µg/l: HCT116, 20 µg/l; for IC50: Homo sapiens, HCT-116, HCT116, MTT, read-out: IC50 (drug concentration that inhibited 50% of cell proliferation)
In short: as §1

[1] = target: T1, Tropomyosin receptor kinase A (TrKA) (Homo sapiens, UniProt P04629); assay: Tropomyosin receptor kinase A (TrKA) inhibitory assay (Kinase-Glo MAX kit); assay type: biochemical; conditions: in vitro kinase assay, recombinant TrkA
T1 construct: purchased
T1 sequence (P04629 33-796): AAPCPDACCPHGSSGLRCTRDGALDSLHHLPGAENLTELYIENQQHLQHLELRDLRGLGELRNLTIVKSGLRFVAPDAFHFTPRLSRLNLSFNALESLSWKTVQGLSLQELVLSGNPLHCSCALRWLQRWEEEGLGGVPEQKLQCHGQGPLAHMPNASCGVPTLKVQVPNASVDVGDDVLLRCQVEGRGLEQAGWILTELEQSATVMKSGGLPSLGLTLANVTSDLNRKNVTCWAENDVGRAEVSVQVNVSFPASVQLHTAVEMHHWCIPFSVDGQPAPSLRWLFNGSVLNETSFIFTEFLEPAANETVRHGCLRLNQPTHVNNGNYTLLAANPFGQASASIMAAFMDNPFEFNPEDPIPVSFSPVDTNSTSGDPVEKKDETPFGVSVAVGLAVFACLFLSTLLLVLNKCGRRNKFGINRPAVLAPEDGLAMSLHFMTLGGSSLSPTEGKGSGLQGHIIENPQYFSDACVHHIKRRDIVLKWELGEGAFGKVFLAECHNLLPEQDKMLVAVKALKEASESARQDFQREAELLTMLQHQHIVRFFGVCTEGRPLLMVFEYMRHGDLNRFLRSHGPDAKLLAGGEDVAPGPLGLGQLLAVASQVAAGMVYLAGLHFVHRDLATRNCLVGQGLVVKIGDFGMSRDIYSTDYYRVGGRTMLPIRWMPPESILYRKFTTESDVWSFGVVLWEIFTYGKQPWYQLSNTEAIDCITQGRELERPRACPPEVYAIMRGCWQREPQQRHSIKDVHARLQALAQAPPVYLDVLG
Text: (§2) The TrkA assay Kit is designed to measure TrkA activity for screening and profiling applications using Kinase-Glo® MAX as a detection reagent. The TrkA Assay Kit comes in a convenient 96-well format, with enough purified recombinant TrkA enzyme, TrkA substrate, ATP and kinase assay buffer for 100 enzyme reactions. The method was discussed in details in the ESI.
as §2, with “reactions.” for “reactions. The method was discussed in details in the ESI.”
The assay protocol: all samples and controls should be tested in duplicate. Dissolve 5x Kinase Assay Buffer 1, ATP, and PTK Substrate Poly (Glu:Tyr 4:1) (10 mg/ml). 2). The master mixture (25 μl per well) was prepared by N wells x (6 μl 5x Kinase Assay Buffer 1 + 1 μl ATP (500 μM) + 1 μl PTK Substrate Poly (Glu:Tyr 4:1) (10mg/ml) + 17 μl water). Add 5 μl of Inhibitor solution of each well labeled as “Test Inhibitor”. For the “Positive Control" and “Blank”, add 5 μl of the same solution without inhibitor (Inhibitor buffer). Prepare 3 ml of 1x Kinase assay buffer 1 by mixing 600 μl of 5x Kinase assay buffer 1 with 2400 μl water 3 ml of 1x Kinase assay buffer is sufficient for 100 reactions. To the wells designated as "Blank", add 20 μl of 1x Kinase assay buffer 1and thaw TrkA enzyme on ice. Upon first thaw, briefly spin tube containing enzyme to recover full content of the tube. Calculate the amount of TrkA required for the assay and dilute enzyme to 5 ng/μl with 1x Kinase assay buffer. Store remaining undiluted enzyme in aliquots at -80°C. Then initiate reaction by adding 20 μl of diluted TrkA enzyme to the wells designated “Positive Control” and "Test Inhibitor Control". Incubate at 30°C for 45minutes and thaw Kinase-Glo Max reagent. After the 45 minute reaction, add 50 μl of Kinase-Glo Max reagent to each well. Cover plate with aluminum foil and incubate the plate at room temperature for 15 minutes. Immediately read sample in a luminometer or microtiter-plate capable of reading chemiluminescence. “Blank” value is subtracted from all readings.

HepG2 cells = assay: In-vitro cell cycle analysis (PI flow cytometry); assay type: cell-based, human; conditions: for Cell cycle comment (phase of arrest): HepG2; for DNA content %G0-G1 / DNA content %G2/M / DNA content %Pre-G1 / DNA content %S: HepG2, compound at its IC50; for increase of the proportion of cells in the G2/M phase: HepG2, versus control
Description: HepG-2 cells are pre-cultured in 25 cm^2 cell culture flask. RPMI-1640 medium was used. Tested compounds 7b, 9c, 15b, 16a and 16c were used in the cell treatment at their IC50 by dissolving them in the required medium separately. The procedure was discussed in details in the ESI.
For cell cycle analysis, stained DNA from HepG2 cancer cells was treated with compounds 7b, 15b, 16a and 16c that induce cancer cell death by inhibiting TrKA. From the results in Table 5, it can be seen that the proportion of cells at phase in the pre-G1 of compounds 7b, 15b, 16a and 16c increased the proportion of cells at phase in the G2/M by about 4, 4, 2.5 and 3 folds, respectively.
HepG-2 cells were pre-cultured in 25 cm^2 cell culture flasks; RPMI-1640 medium was used. Tested compounds 7b, 15b, 16a and 16c were dissolved separately in the required medium and used in the cell treatment at their IC50. After overnight treatment the cells were collected and fixed gently with 70% (v/v) ethanol in PBS, incubated overnight at 4 °C, and resuspended in PBS containing 40 µg/ml propidium iodide (PI), 0.1 mg/ml RNase and 0.1% (v/v) Triton X-100 in the dark room at after 30 min at 37 °C, the cell cycle analysis was performed using a flow cytometer, equipped with an argon ion laser at a wavelength of 488 nm (Becton-Dickinson, San Josa, CA, USA) and the percentage of cells at G1, S and G2/M was also calculated.

IC50 (HepG2 cell line) | IC50 (HCT-116 cell line) | IC50 [1] | Compound | Cytotoxicity at 5 µg/l (MCF7 cell line) | Cytotoxicity at 10 µg/l (MCF7 cell line) | Cytotoxicity at 20 µg/l (MCF7 cell line) | Cytotoxicity at 5 µg/l (HepG2 cell line) | Cytotoxicity at 10 µg/l (HepG2 cell line) | Cytotoxicity at 20 µg/l (HepG2 cell line) | Cytotoxicity at 5 µg/l (HCT-116 cell line) | Cytotoxicity at 10 µg/l (HCT-116 cell line) | Cytotoxicity at 20 µg/l (HCT-116 cell line) | Cell cycle comment (phase of arrest) (HepG2 cells) | DNA content %G0-G1 (HepG2 cells) | DNA content %G2/M (HepG2 cells) | DNA content %Pre-G1 (HepG2 cells) | DNA content %S (HepG2 cells) | increase of the proportion of cells in the G2/M phase (HepG2 cells)
4.25 ng/mL (≈ 0.0122 µM) | 2.49 ng/mL (≈ 0.00714 µM) | 184 nM | COc1ccc(C=C2C(=O)NC(=O)c3c2nn2c(C)cc(C)nc32)cc1 [Compound 7b] | 60.48 | 79.12 | 95.03 | 55.11 | 69.08 | 85.16 | 67.87 | 70.12 | 91.94 | arrested in the cell cycle at G2/M phase; also recorded: arrest in cell cycle at the G2/M phase; also recorded: cell growth arrest@G2/M | 38.42% | 34.70% | 24.89% | 26.88% | about 4 folds
3.56 ng/mL (≈ 0.0106 µM) | 4.37 ng/mL (≈ 0.013 µM) | 214 nM | Cc1cc(O)n2nc3c(c2n1)C(=O)NC(=O)C3=NNc1ccccc1 [Compound 16a, 4-Hydroxy-2-methyl-7-(2-phenylhydrazono)pyrido[4ʹ,3ʹ:3,4]pyrazolo[1,5-a]pyrimid-ine-8,10(7H,9H)-dione] | 55.09 | 57.34 | 77.25 | 54.39 | 66.36 | 72.80 | 54.16 | 74.90 | 87.26 | arrest in cell cycle at the G2/M phase; also recorded: cell growth arrest@G2/M | 42.11% | 21.74% | 15.33% | 36.15% | ~2.5 folds
3.43 ng/mL (≈ 0.00935 µM) | 4.5 ng/mL (≈ 0.0123 µM) | 128 nM | COc1ccc(NN=C2C(=O)NC(=O)c3c2nn2c(O)cc(C)nc32)cc1 [Compound 16c, 4-Hydroxy-7-(2-(4-methoxyphenyl)hydrazono)-2-methylpyrido[4ʹ,3ʹ:3,4]pyrazolo[1,5-a]pyrimidine-8,10(7H,9H)-dione] | 56.81 | 62.79 | 79.61 | 59.17 | 70.57 | 84.32 | 55.98 | 78.34 | 99.23 | arrest in cell cycle at the G2/M phase; also recorded: cell growth arrest@G2/M | 41.61% | 26.45% | 12.07% | 31.94% | ~3 folds
